Measurements published in patent US4985450A, “Arylthiadiazolylsulfonamides and derivatives” (priority 1989, dated 1991).

Legend:
[1] = tested on: intraocular pressure in alpha-chymotrypsin-induced ocular hypertensive rabbit eyes; assay: Alpha-chymotrypsin-induced ocular hypertension, maximum intraocular pressure drop; type: in vivo, New Zealand White rabbits
Experimental: This is done by the direct injection of the proteolytic enzyme, alpha-chymotrypsin into the posterior chamber of the rabbit eye.
Ocular hypertension is elicited in New Zealand White rabbits (2.0-2.5 kg) by the injection of alpha-chymotrypsin into the posterior chamber as described by Sears and Sears (Am. J. Ophthalmol. 77, 378-383, (1974). Briefly, the animals are pretreated with indomethacin (10 mg/kg i.p.) to prevent the otherwise immediate onset of inflammation. One hour later, the rabbits are anesthetized with a 2 ml intramuscular injection of a 50:50 mixture of xylazine (20 mg/kg) and ketamine (100 mg/kg). The eyes are individually proptosed and treated topically with 50 microliters of 0.5% proparacaine. The anterior chamber is cannulated with a 30-gauge needle attached to a reservoir set at a pressure of 25 mmHg. Then, 0.5 ml of alpha-chymotrypsin (350 units) is injected through the pupil near the limbus and into the posterior chamber using an S-curved, 30-gauge needle. During the injection, the tip of the needle is swept across the posterior chamber to distribute the enzyme. Care is taken to avoid injection of any enzyme into the corneal stroma. Both needles can then be carefully removed to prevent any significant loss of aqueous humor.
The eyes are examined biweekly for corneal lacerations and overt inflammatory responses. […] The intraocular pressures of the operated rabbits are checked approximately four weeks posttreatment. […]. Generally, about 50% of the operated eyes are suitable for study. Intraocular pressure is measured with a standard instrument and the results are expressed in terms of maximum (over measurment time) percentage drop of intraocular pressure.

carbonic anhydrase B = carbonic anhydrase B (Homo sapiens, UniProt P00915); assay: Carbonic anhydrase esterase inhibition (spectrophotometric rate of hydrolysis of 1 mM p-nitrophenyl acetate); type: biochemical; details: read-out: Carbonic Anhydase Esterase Inhibition IC50
Experimental: It is generally known that carbonic anhydrase inhibitors are useful for the treatment of glaucoma. The carbonic anhydrase inhibitory activities have been evaluated by spectrophotometrically measuring the rate of hydrolysis of 1 mM p-nitrophenyl acetate catalyzed by carbonic anhydrase B according to the procedure described in J. Armstrong et al., J. Biol. Chem., Vol 241, No. 21, pp 5137-5149 (1966).

carbonic anhydrase B, sequence (P00915 2-261 limits assumed): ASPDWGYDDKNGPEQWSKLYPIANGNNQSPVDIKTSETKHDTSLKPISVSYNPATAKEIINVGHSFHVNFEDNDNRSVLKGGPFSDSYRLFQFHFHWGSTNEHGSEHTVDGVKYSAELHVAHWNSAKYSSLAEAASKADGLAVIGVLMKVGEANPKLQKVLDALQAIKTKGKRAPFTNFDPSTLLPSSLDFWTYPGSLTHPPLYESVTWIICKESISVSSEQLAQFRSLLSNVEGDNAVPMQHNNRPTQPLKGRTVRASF

Row | IC50 (carbonic anhydrase B) | Compound | Maximum Intraocular Pressure Drop ([1]; at 0.3%) | Maximum Intraocular Pressure Drop ([1]; at 3%) | Maximum Intraocular Pressure Drop ([1]; at 0.5%) | Maximum Intraocular Pressure Drop ([1]; at 1.0%)
1 | 270 nM | NS(=O)(=O)c1nc(-c2ccccc2Cl)ns1 [3-(2-Chlorophenyl)-1,2,4-thiadiazole-5-sulfonamide] | 24.8% |  |  | 
2 | 400 nM | COC(=NS(=O)(=O)c1nc(-c2ccccc2Cl)ns1)C(C)C [N-(1-Methoxy-2-methylpropylidene)-3-(2-chlorophenyl)-1,2,4-thiadiazole-5-sulfonamide] | 13% | 26% |  | 
3 |  | CC(C)(C)NC[C@H](O)COc1nsnc1N1CCOCC1 [Timolol, reference compound] |  |  | 27.5% | 28.0%
